Consider two molecules from patent US20250289848A1, “PEPTIDOMIMETIC INHIBITORS OF B-CATENIN/TCF PROTEIN-PROTEIN INTERACTION” (H. LEE MOFFITT CANCER CENTER AND RESEARCH INSTITUTE, INC., priority 2018, published 2025).

In one test the test system is SW480 cells. In words: MTS cell viability assay, SW480. Format: cell-based. To be noted: Homo sapiens, SW480, 72 h; read-out: MTs IC50 ± SD SW480. On the technique in general: Tetrazolium assays rely on reduction of a dye to a coloured formazan, in cell work by metabolically active cells.
Another test concerns HCT116 cells. The experiment in a line: MTS cell viability assay, HCT116. Format: cell-based. To be noted: Homo sapiens, HCT-116, 72 h; read-out: MTs IC50 ± SD HCT116.
Test [1] concerns MDA-MB-231 cells. In words: MTS cell viability assay, MDA-MB-231. Format: cell-based. The following applies: Homo sapiens, MDA-MB-231, 72 h; read-out: MTs IC50 ± SD MDA-MB-231.
For the next test, the system named is MDA-MB-468 cells. In words: MTS cell viability assay, MDA-MB-468. Format: cell-based. The following applies: Homo sapiens, MDA-MB-468, 72 h, read-out: MTs IC50 ± SD MDA-MB-468.
Another test relates to BT-20 cells. The experiment in a line: MTS cell viability assay, BT-20. Format: cell-based. To be noted: Homo sapiens, BT-20, 72 h; read-out: MTs IC50 ± SD BT-20.
The test system of another test is A549 cells. In words: MTS cell viability assay, A549. The class given is cell-based. The following applies: Homo sapiens, A549, 72 h; read-out: MTs IC50 ± SD A549.
The test system of test [2] is TOPFlash luciferase reporter in β-catenin activated HEK293 cells. The experiment in a line: TOPFlash luciferase reporter assay. The class given is cell-based. The following applies: 24 h treatment, wild-type Tcf4 binding sites. The method, then:
(§1) FuGENE 6 (E2962, Promega) in a 96-well plate format was used for the transfection of HEK293 cells according to the manufacturer's instructions. HEK293 cells were co-transfected with 45 ng of the TOPFlash or FOPFlash reporter gene, 135 ng of pcDNA3.1-p-catenin and 20 ng of pCMV-RL normalization reporter gene. Cells were cultured in DMEM and 10% fatal bovine serum at 37° C. for 24 h, and different concentrations of inhibitors were then added. After 24 h, the luciferase reporter activity was measured using the Dual-Glo system (E2940, Promega). Normalized luciferase activity in response to the treatment with the inhibitors was compared with that obtained from the cells treated with DMSO. Experiments were performed in triplicate.
In general terms: In a reporter assay the amount or activity of a reporter protein is the signal.

Test [3] concerns FOPFlash luciferase reporter in β-catenin activated HEK293 cells. The experiment in a line: FOPFlash luciferase reporter assay. To be noted: 24 h treatment, mutant Tcf4 binding sites. The class given is cell-based. On the procedure: as §1
The test system of the next test is β-catenin/Tcf PPI. Format: cell-based. The following applies: HCT116 cells, 24 h treatment.
In test [4] the test system is MDA-MB-231 cells. The experiment in a line: Scratch wound healing assay. The class given is cell-based, human. To be noted: 10 μM; 10% serum; mitomycin; 14 h. On the procedure:
Scratch wound healing assay. To the confluent monolayer of MDA-MB-231 cells in 24-well plates, wounds will be made by scraping a sterile 200 μL pipette tip. Cells were maintained in DMEM containing 10% FBS with 10 μg/mL mitomycin to inhibit cell proliferation. Images of wounds were taken immediately and 14 h after wounding.
(§2) Scratch wound healing and Matrigel invasion assays using TNBC MDA-MB-231 cells were conducted.

The test system of test [5] is MDA-MB-231 cells. The experiment in a line: Matrigel invasion assay. Format: cell-based, human. To be noted: 10 μM; 24 h. The method, then: Matrigel invasion assay. MDA-MB-231 cells (5×10^4) suspended in 200 p L starvation medium were added to the upper chamber of a Matrigel coated insert (6.5 mm diameter, […]; Corning 353097), and the insert was placed in a 24-well plate containing […] DMEM medium with 10% FBS. Inhibitors were added to both upper and the lower chambers. Invasion assays were performed for 24 h and cells were fixed with 3.7% formaldehyde. Cells were stained with crystal violet staining solution. The cells on the upper side of the insert were removed with a cotton swab. Five randomly selected fields (×10 objectives) on the lower side of the insert were photographed, and the invaded cells were counted.
as §2

For test [6], the system named is Wnt/β-catenin hyperactive cancer cells. In words: MTS cell viability assay, summary over cell lines. The following applies: result in words. Format: cell-based.
For the next test, the system named is β-catenin/APC PPI. The experiment in a line: Co-IP experiment, HCT116 cells, β-catenin/APC. The following applies: 24 h, concentrations sufficient to disrupt β-catenin/Tcf PPI.
In another test the test system is β-catenin/E-cadherin PPI. In words: Co-IP experiment, HCT116 cells, β-catenin/E-cadherin. To be noted: 24 h, concentrations sufficient to disrupt β-catenin/Tcf PPI.

Entries after “also recorded” stand apart in the source; their conditions may differ.

Take `CCOC(=O)CC[C@H](NC(=O)[C@H](Cc1nn[nH]n1)NC(=O)[C@H](Cc1ccc2ccccc2c1)NC(=O)c1cc2cc(Cl)ccc2[nH]1)C(=O)Nc1ccc(OC(F)(F)F)cc1` [Compound 56, Ethyl (S)-4-((S)-2-((S)-2-(5-chloro-1H-indole-2-carboxamido)-3-(naphthalen-2-yl)propanamido)-3-(2H-tetrazol-5-yl)propanamido)-5-oxo-5-((4-(trifluoromethoxy)phenyl)amino)pentanoate]: the IC50 – broadly, the point on the concentration scale where inhibition reaches its midpoint – in the test on SW480 cells was determined as 14.1 ± 2.86 µM; in the test with HCT116 cells, 69.4 ± 7.21 µM; in the test with MDA-MB-231 cells [1], 12.3 ± 2.16 µM; with MDA-MB-468 cells, 7.25 ± 0.72 µM; in the test on BT-20 cells, 16.5 ± 2.23 µM; in the test with A549 cells, 86.4 ± 8.58 µM. The “TOPFlash luciferase activity (transactivation of Wnt/β-catenin signaling)” value in test [2] is on record as “suppressed transactivation of Wnt/β-catenin signaling in dose-dependent manners; also recorded: inhibited”. Also, the “FOPFlash luciferase reporter activity” value in test [3] was “did not inhibit”. The “disruption of the β-catenin/Tcf PPI (co-IP)” value in the test on β-catenin/Tcf PPI is listed as “disrupted the β-catenin/Tcf PPI; also recorded: dose-dependently inhibited”. For the same molecule, in the test with MDA-MB-231 cells [4], the “migration of TNBC MDA-MB-231 cells (wound healing)” value is recorded as “selectively inhibited; also recorded: inhibited the migration; also recorded: effectively inhibit”. Also, the “invasion of TNBC MDA-MB-231 cells (Matrigel)” value with MDA-MB-231 cells [5] is “selectively inhibited; also recorded: inhibited invasion; also recorded: effectively inhibit”. Further, the “viability of Wnt/β-catenin hyperactive cancer cells” value in [6] is “selectively inhibited”. For the same molecule, in the test with β-catenin/APC PPI, the “effect on the β-catenin/APC PPI (co-IP)” value was “without affecting; also recorded: had no effect”. The “effect on the β-catenin/E-cadherin PPI (co-IP)” value in the test with β-catenin/E-cadherin PPI was “without affecting; also recorded: had no effect”.
Take `NC(=O)CC[C@H](NC(=O)[C@H](Cc1nn[nH]n1)NC(=O)[C@H](Cc1ccc2ccccc2c1)NC(=O)c1cc2cc(Cl)ccc2[nH]1)C(=O)Nc1ccc(OC(F)(F)F)cc1` [Compound 55, (S)-2-((S)-2-((S)-2-(5-Chloro-1H-indole-2-carboxamido)-3-(naphthalen-2-yl)propanamido)-3-(2H-tetrazol-5-yl)propanamido)-N^1-(4-(trifluoromethoxy)phenyl)pentanediamide]: the IC50 is 28.2 ± 4.63 µM in the test on SW480 cells; 63.9 ± 7.48 µM in the test on HCT116 cells; 34.3 ± 6.42 µM in the test on MDA-MB-231 cells [1]; 29.2 ± 4.02 µM in the test with MDA-MB-468 cells; 38.4 ± 3.99 µM with BT-20 cells; 60.3 ± 10.5 µM in the test with A549 cells. Also, the “TOPFlash luciferase activity (transactivation of Wnt/β-catenin signaling)” value in test [2] was “inhibited”. The “FOPFlash luciferase reporter activity” value in test [3] is given as “did not inhibit”.
